Source: ChEMBL document CHEMBL1201862, “PubChem BioAssay data set” (2004)
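Each compound was tested at five concentrations against cells in 96-well plates for 48 hours. GI50 marks 50% less growth.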 Calls of active or inactive are those of the source. Cut-off read from the data, not from the text of the source: active = GI50 up to about 1.1 µM and inactive = higher.

Assays:
Assay in all cases: growth of human tumour cells (NCI), 48 h
[1] = tested on: MCF7
[2] = tested on: NCI-H226
[3] = tested on: UACC-62
[4] = tested on: K562
[5] = tested on: HOP-92
[6] = tested on: SF-295
[7] = tested on: SK-OV-3
[8] = tested on: M14
[9] = tested on: NCI-H522
[10] = tested on: DU-145
[11] = tested on: SNB-75
[12] = tested on: SN12C
[13] = tested on: TK-10
[14] = tested on: LOX IMVI
[15] = tested on: T47D
[16] = tested on: BT-549
[17] = tested on: SK-MEL-5
[18] = tested on: SW-620
[19] = tested on: RXF 393
[20] = tested on: SNB-19
[21] = tested on: OVCAR-3
[22] = tested on: Hs-578T
[23] = tested on: SF-539
[24] = tested on: U-251
[25] = tested on: HCC 2998
[26] = tested on: COLO 205
[27] = tested on: SR
[28] = tested on: KM12
[29] = tested on: ACHN
[30] = tested on: NCI-H460
[31] = tested on: EKVX
[32] = tested on: HCT-116
[33] = tested on: 786-0
[34] = tested on: SF-268
[35] = tested on: Malme-3M
[36] = tested on: OVCAR-8
[37] = tested on: HCT-15
[38] = tested on: HT-29
[39] = tested on: UACC-257
[40] = tested on: CCRF-CEM
[41] = tested on: OVCAR-4
[42] = tested on: CAKI-1
[43] = tested on: MOLT-4
[44] = tested on: MDA-N
[45] = tested on: MDA-MB-435
[46] = tested on: A498
[47] = tested on: NCI-H23
[48] = tested on: RPMI-8226
[49] = tested on: PC-3
[50] = tested on: SK-MEL-28
[51] = tested on: A549
[52] = tested on: NCI/ADR-RES
[53] = tested on: UO-31
[54] = tested on: OVCAR-5
[55] = tested on: HOP-62
[56] = tested on: MDA-MB-231
[57] = tested on: SK-MEL-2
[58] = tested on: HL-60
[59] = tested on: IGROV-1

Measured: GI50

COc1ccc2[nH]c3nnc(N)c-3nc2c1
7.94 µM: [37]
inactive: [1] 3.99 µM | [2] 3.85 µM | [3] 7.01 µM | [4] 62.4 µM | [5] 10.4 µM | [6] 7.66 µM | [7] 20.4 µM | [8] 12.3 µM | [9] 5.83 µM | [10] 7.55 µM | [11] 6.79 µM | [12] 18.4 µM | [13] 11.3 µM | [14] 4.11 µM | [15] 7.5 µM | [16] 13.6 µM | [17] 8.09 µM | [18] 9.4 µM | [19] 2.49 µM | [20] 16.5 µM | [21] 3.61 µM | [22] 3.81 µM | [23] 3.74 µM | [24] 10.6 µM | [25] 14.1 µM | [26] 3.62 µM | [27] 4.1 µM | [28] 5.68 µM | [29] 3.33 µM | [30] 7.46 µM | [31] 4.26 µM | [32] 4.04 µM | [33] 8.3 µM | [34] 6.21 µM | [35] 21.8 µM | [36] 5.62 µM | [38] 5.58 µM | [39] 17.1 µM | [40] 9.31 µM | [41] 20 µM | [42] 5.66 µM | [43] 5.73 µM | [44] 12 µM | [45] 10.2 µM | [46] 9.79 µM | [47] 4.17 µM | [48] 3.87 µM | [49] 8.43 µM | [50] 11.2 µM | [51] 4.14 µM | [52] 7.01 µM | [53] 9.73 µM | [54] 7.8 µM | [55] 6.14 µM | [56] 18.9 µM | [57] 5.28 µM | [58] 2.13 µM | [59] 2.59 µM

CC(C)c1ccc(O)c(=O)c(O)c1.CC(C)c1ccc(O)c(=O)cc1.CC(C)c1cccc(=O)c(O)c1.CC(C)c1ccccc(=O)c1O
active: [1] 0.935 µM | [3] 0.787 µM | [4] 0.571 µM | [9] 0.456 µM | [12] 0.998 µM | [13] 0.459 µM | [14] 0.76 µM | [18] 0.697 µM | [19] 0.432 µM | [21] 0.279 µM | [23] 0.598 µM | [24] 0.491 µM | [25] 0.304 µM | [27] 0.262 µM | [29] 0.47 µM | [30] 0.191 µM | [32] 0.373 µM | [33] 0.719 µM | [34] 0.632 µM | [36] 0.604 µM | [38] 0.509 µM | [39] 0.322 µM | [40] 0.21 µM | [41] 1.11 µM | [43] 0.343 µM | [47] 0.851 µM | [48] 0.964 µM | [49] 0.416 µM | [51] 1.07 µM | [52] 0.42 µM | [53] 0.841 µM | [57] 0.204 µM | [58] 0.281 µM
inactive: [2] 1.76 µM | [5] 5.94 µM | [6] 1.23 µM | [7] 4.37 µM | [8] 1.8 µM | [10] 1.42 µM | [11] 2.02 µM | [15] 1.88 µM | [16] 4.8 µM | [17] 1.22 µM | [20] 3.4 µM | [22] 4.46 µM | [26] 2.77 µM | [28] 2.87 µM | [31] 6.15 µM | [35] 1.43 µM | [42] 1.36 µM | [44] 3.32 µM | [45] 2.1 µM | [46] 2.06 µM | [50] 2.05 µM | [54] 3.11 µM | [55] 1.24 µM | [56] 1.79 µM | [59] 1.36 µM
0.198 µM: [37]

COc1ccc(/C=C2\C[C@H]3[C@@H]4CCC5=C[C@@H](N6CCCC6)CC[C@]5(C)[C@H]4CC[C@]3(C)[C@H]2O)cc1
active: [27] 1.01 µM | [38] 0.728 µM
inactive: [1] 1.93 µM | [2] 3.13 µM | [3] 1.78 µM | [4] 2.16 µM | [5] 2.49 µM | [6] 2.3 µM | [7] 5.18 µM | [8] 1.51 µM | [9] 2.53 µM | [10] 4.91 µM | [11] 4.97 µM | [12] 4.8 µM | [13] 2.43 µM | [14] 1.78 µM | [15] 4.56 µM | [16] 5.85 µM | [17] 1.55 µM | [18] 2.3 µM | [19] 1.52 µM | [20] 4.61 µM | [21] 2.64 µM | [22] 2.69 µM | [23] 2.15 µM | [24] 2.77 µM | [25] 1.31 µM | [26] 1.67 µM | [28] 2.34 µM | [29] 3.29 µM | [30] 2.49 µM | [31] 3.81 µM | [32] 1.98 µM | [33] 1.53 µM | [34] 2.92 µM | [35] 2.61 µM | [36] 3.52 µM | [39] 1.4 µM | [41] 3.59 µM | [42] 3.52 µM | [43] 2.86 µM | [44] 1.57 µM | [45] 1.93 µM | [46] 1.61 µM | [47] 3.44 µM | [48] 2.97 µM | [49] 2.25 µM | [50] 1.87 µM | [51] 2.58 µM | [52] 4.39 µM | [53] 1.72 µM | [54] 4.81 µM | [55] 1.66 µM | [56] 1.96 µM | [57] 1.88 µM | [58] 1.95 µM | [59] 4.28 µM
1.4 µM: [37]

N#Cc1nc(Sc2cnsn2)c(Sc2cnsn2)nc1C#N
active: [40] 0.426 µM
inactive: [1] 21.9 µM | [2] 19.9 µM | [3] 17.6 µM | [4] 2.9 µM | [5] 20 µM | [6] 16.6 µM | [7] 17.9 µM | [8] 20.4 µM | [9] 3.93 µM | [10] 17.1 µM | [11] 22.9 µM | [12] 21.4 µM | [13] 5.12 µM | [14] 17.9 µM | [15] 6.25 µM | [16] 21.4 µM | [17] 14.9 µM | [18] 2.25 µM | [19] 5.94 µM | [20] 30 µM | [21] 6.79 µM | [22] 19.1 µM | [23] 19.4 µM | [24] 29.4 µM | [25] 18.7 µM | [26] 3.85 µM | [27] 8.91 µM | [28] 20.7 µM | [29] 7.1 µM | [30] 24.6 µM | [31] 10.4 µM | [32] 6.65 µM | [33] 6.78 µM | [34] 19.4 µM | [35] 4.81 µM | [36] 24.5 µM | [38] 20.6 µM | [39] 13.6 µM | [41] 21.7 µM | [42] 6.47 µM | [43] 2.65 µM | [44] 20.4 µM | [45] 11.5 µM | [46] 21.8 µM | [47] 21.6 µM | [48] 3.5 µM | [49] 21.6 µM | [50] 22.6 µM | [51] 28.6 µM | [52] 22.8 µM | [53] 9.44 µM | [54] 18.9 µM | [55] 18.7 µM | [56] 23.9 µM | [57] 21.2 µM | [58] 1.95 µM | [59] 18.5 µM
6.68 µM: [37]
